Reference: ChEMBL document CHEMBL1201862, “PubChem BioAssay data set” (2004)
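Growth conditions: 96-well plates. Treatment: test compound, 48 hours, 5 concentrations. Analysis: linear interpolation between bracketing concentrations; unreached endpoints set to highest concentration. GI50 is the concentration that inhibits growth by half.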 Active and inactive are the calls of the source. Cut-off read from the data, not from the text of the source: active = GI50 up to about 1.1 µM and inactive = higher.

Experiments:
Test in all cases: NCI-60 cell line screen, 48 h
[1] = system: EKVX
[2] = system: NCI-H460
[3] = system: NCI-H226
[4] = system: UO-31
[5] = system: HCT-116
[6] = system: NCI-H522
[7] = system: HL-60
[8] = system: NCI-H23
[9] = system: HOP-92
[10] = system: A498
[11] = system: KM12
[12] = system: SW-620
[13] = system: CCRF-CEM
[14] = system: SN12C
[15] = system: SNB-75
[16] = system: U-251
[17] = system: UACC-62
[18] = system: SK-OV-3
[19] = system: RPMI-8226
[20] = system: HCC 2998

Measured: GI50

CN(C)CN1C(=O)/C(=N\n2c(S)nnc2-c2ccncc2)c2ccccc21
inactive: [1] > 100 µM | [2] 38.3 µM | [3] > 100 µM | [4] 29.5 µM | [5] 34 µM | [6] 16.6 µM | [7] 11.7 µM | [8] 37.8 µM | [9] 76.9 µM | [10] > 100 µM | [11] 43.7 µM | [12] 18.8 µM | [13] 9.38 µM | [14] 35.2 µM | [15] 38.5 µM | [16] 38.8 µM | [17] 42.4 µM | [18] 31.7 µM

CC(C)CC(N/C=C1/N=C(c2ccccc2)OC1=O)C(=O)O (stereo unspecified)
inactive: [1] > 100 µM | [2] > 100 µM | [19] > 100 µM | [3] > 100 µM | [4] > 100 µM | [5] > 100 µM | [6] > 100 µM | [7] > 100 µM | [8] > 100 µM | [10] > 100 µM | [11] > 100 µM | [12] > 100 µM | [13] > 100 µM | [14] > 100 µM | [15] 37.3 µM | [20] > 100 µM | [16] > 100 µM | [17] > 100 µM | [18] > 100 µM

c1ccc2c(c1)nc1n2CSC1
inactive: [1] > 100 µM | [2] > 100 µM | [19] > 100 µM | [3] > 100 µM | [4] > 100 µM | [6] > 100 µM | [7] > 100 µM | [8] > 100 µM | [9] 24 µM | [10] > 100 µM | [12] > 100 µM | [13] > 100 µM | [14] > 100 µM | [15] > 100 µM | [16] > 100 µM | [17] > 100 µM | [18] > 100 µM

COc1ccc(C(=O)/C=C/S/C(=N/C#N)SC)cc1
inactive: [1] 35.3 µM | [2] > 100 µM | [19] 4.33 µM | [3] 16.5 µM | [4] 17.9 µM | [5] 14.9 µM | [6] 18.2 µM | [7] 16.6 µM | [8] 16.9 µM | [9] 65.5 µM | [10] 24.5 µM | [11] 25.9 µM | [12] 16.8 µM | [14] 24.4 µM | [15] 27.9 µM | [16] 16.9 µM | [17] 20 µM | [18] 26.2 µM

COc1cc(OC)nc(-n2c(N)c(C(=O)O)c3ccc([N+](=O)[O-])cc3c2=O)n1
inactive: [1] > 100 µM | [2] > 100 µM | [19] > 100 µM | [3] > 100 µM | [4] 71.1 µM | [5] > 100 µM | [6] > 100 µM | [7] 60.5 µM | [8] > 100 µM | [10] > 100 µM | [11] > 100 µM | [12] 88.1 µM | [13] 63.1 µM | [14] > 100 µM | [15] > 100 µM | [20] > 100 µM | [16] > 100 µM | [17] > 100 µM | [18] > 100 µM

O=C1NC2CCCCCC2C12CCCCC2 (stereo unspecified)
inactive: [1] > 100 µM | [2] > 100 µM | [3] > 100 µM | [4] > 100 µM | [5] > 100 µM | [7] > 100 µM | [8] > 100 µM | [10] > 100 µM | [11] > 100 µM | [12] > 100 µM | [13] > 100 µM | [14] > 100 µM | [15] > 100 µM | [20] > 100 µM | [16] > 100 µM | [17] > 100 µM | [18] > 100 µM

OCC1=C[C@@](COCc2ccccc2)(OCc2ccccc2)[C@@H](OCc2ccccc2)[C@@H]1OCc1ccccc1
inactive: [1] 11.7 µM | [2] 18.8 µM | [19] 2.49 µM | [3] 15.5 µM | [4] 17 µM | [5] 12.2 µM | [6] 11 µM | [7] 23.4 µM | [8] 16.6 µM | [10] 10.9 µM | [11] 15.9 µM | [12] 18.5 µM | [13] 2.81 µM | [14] 2.86 µM | [20] 13.7 µM | [16] 6.59 µM | [17] 17.3 µM

COc1ccc2c(c1)[n+]([O-])c(-c1cccc(Cl)c1)c(N)[n+]2[O-]
inactive: [1] > 100 µM | [2] 27.4 µM | [3] > 100 µM | [4] 89.3 µM | [5] 38.5 µM | [6] 16.5 µM | [7] 29 µM | [8] 23.9 µM | [9] > 100 µM | [10] > 100 µM | [11] 48.6 µM | [12] 39.7 µM | [13] 22.9 µM | [14] 48.4 µM | [16] 37.3 µM | [18] 95.9 µM

O=c1cnnc2sc(=S)[nH]n12
inactive: [1] > 100 µM | [2] 26.7 µM | [19] 13.7 µM | [4] 22.2 µM | [5] > 100 µM | [6] 8.45 µM | [7] 16.6 µM | [10] > 100 µM | [11] > 100 µM | [12] 12.4 µM | [13] 2.07 µM | [20] 44.5 µM | [16] 22.1 µM | [17] 18.2 µM

OCC1COc2cc(Cl)c(Cl)cc2O1 (stereo unspecified)
inactive: [1] > 10 µM | [2] > 10 µM | [19] > 10 µM | [3] 6.3 µM | [4] > 10 µM | [5] > 10 µM | [6] 1.42 µM | [7] > 10 µM | [8] > 10 µM | [10] > 10 µM | [11] > 10 µM | [12] > 10 µM | [13] > 10 µM | [14] > 10 µM | [15] > 10 µM | [20] > 10 µM | [16] > 10 µM | [17] > 10 µM | [18] > 10 µM

CS(=O)(=O)N/N=C/CN1C(=O)c2ccccc2C1=O
inactive: [1] > 100 µM | [2] > 100 µM | [19] > 100 µM | [3] > 100 µM | [4] > 100 µM | [5] > 100 µM | [6] > 100 µM | [7] > 100 µM | [8] > 100 µM | [10] > 100 µM | [11] > 100 µM | [12] > 100 µM | [13] > 100 µM | [14] > 100 µM | [15] > 100 µM | [20] > 100 µM | [16] > 100 µM | [17] > 100 µM | [18] > 100 µM

COC(C(O)c1ccc2c(c1)OCO2)P(=O)(c1ccccc1)c1ccccc1 (stereo unspecified)
inactive: [1] > 100 µM | [2] > 100 µM | [3] 73.1 µM | [4] > 100 µM | [5] > 100 µM | [6] 85.3 µM | [7] > 100 µM | [8] 30.8 µM | [9] 68.2 µM | [10] 75.2 µM | [11] > 100 µM | [12] > 100 µM | [13] > 100 µM | [14] 62.8 µM | [15] 35.9 µM | [16] > 100 µM | [17] 32.4 µM | [18] > 10 µM
